Assay: Serum ALT and GGT after injections in mice
Format: in vivo
Details: positive control, one day after intraperitoneal injection of 40 µl of 50% in mineral oil, n=4
Procedure: Blood obtained from the retro-orbit sinus was analyzed for serum concentration of hGH using the RIA, HGH-TGES 100T kit from Nichols Institute (San Juan Capistrano, CA). Serum ALT and GGT levels were done using EKTACHEM DT slides and a KODAK EKTACHEM DT 60 ANALYZER as recommended by the manufacturer (Kodak. Rochester, NY)
Similar results were also obtained when bile ducts were injected with 100 µg of pCILuc in 1 ml of 15% mannitol and 2.5 units heparin/ml in normal saline solution. A mean total luciferase protein/liver of 15.39 µg/liver (Fig. 1A. BD+CL) was obtained when the hepatic vein was clamped as compared to a mean total luciferase protein/liver of 1.33 µg/liver (Fig 1A. BD-CL) without occluding the hepatic vein If mannitol was omitted then the bile duct injections without clamping any blood vessels yielded approximately 15-fold less luciferase (0 086 µg/liver ± 0.06, n = 25). […] Serum ALT and GGT assays were performed on mice one and eight days after each of the above injections with pCILuc (4 mice for each condition). No increases in […] were observed after any of the injections including the bile duct injections. Serum ALT levels increased to 200-400 U/L one day after portal vein and bile duct injections. One day after IVC injections serum ALT levels increased to ∼1500 U/L in half of the mice but was only ∼250 U/L in the other half. […]

## ClC(Cl)(Cl)Cl [carbon tetrachloride]
  Serum ALT, average: 25,900 U/L

From patent EP0996337B1, “A PROCESS OF DELIVERING A POLY[…] THE VASCULAR SYSTEM” (Mirus Bio Corporation, priority 1997, dated 1998)
